# Source: PubChem BioAssay (NCI)
#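 Briefly, cells in 96-well plates were exposed to five compound concentrations for 48 h, and endpoints were estimated by linear interpolation. The concentration for 50% growth inhibition is given as GI50. TGI: total growth inhibition.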
# Key:
# Assay in all cases: NCI tumour cell line growth inhibition, 48 h
# [1] = system: HCT-15 colon
# [2] = system: SNB-75 CNS
# [3] = system: M14 melanoma
# [4] = system: MALME-3M melanoma
# [5] = system: SF-539 CNS
# [6] = system: MDA-MB-435
# [7] = system: SNB-19 CNS
# [8] = system: RXF 393 renal
# [9] = system: NCI-H226 lung
# [10] = system: IGROV1 ovarian
# [11] = system: CCRF-CEM leukemia
# [12] = system: HS 578T breast
# [13] = system: K-562 leukemia
# [14] = system: SK-MEL-5 melanoma
# [15] = system: NCI-H460 lung
# [16] = system: HL-60(TB) leukemia
# [17] = system: SW-620 colon
# [18] = system: TK-10 renal
# [19] = system: HT29 colon
# [20] = system: HCT-116 colon
# [21] = system: MCF7 breast
# [22] = system: LOX IMVI melanoma
# [23] = system: COLO 205 colon
# [24] = system: MOLT-4 leukemia
# [25] = system: A549 NSCLC
# [26] = system: HCC-2998 colon
# [27] = system: U251 CNS
# [28] = system: BT-549 breast
# [29] = system: A498 renal
# [30] = system: CAKI-1 renal
# [31] = system: HOP-92 NSCLC
# [32] = system: SF-295 CNS
# [33] = system: RPMI-8226 leukemia
# [34] = system: HOP-62 NSCLC
# [35] = system: SK-OV-3 ovarian
# [36] = system: OVCAR-8 ovarian
# [37] = system: EKVX NSCLC
# [38] = system: SF-268 CNS
# [39] = system: OVCAR-5 ovarian
# [40] = system: PC-3 prostate
# [41] = system: UO-31 renal
# [42] = system: SR leukemia
# [43] = system: SK-MEL-28 melanoma
# [44] = system: DU-145 prostate
# [45] = system: UACC-62 melanoma
# [46] = system: 786-0 renal
# [47] = system: MDA-MB-468 breast
# [48] = system: SN12C renal
# [49] = system: MDA-MB-231 breast
# [50] = system: UACC-257 melanoma
# [51] = system: NCI-H23 lung
# [52] = system: NCI-H522 lung
# [53] = system: KM12 colon
# [54] = system: OVCAR-3 ovarian
# [55] = system: ACHN renal
# [56] = system: OVCAR-4 ovarian
smiles,measurement,setting,value
Clc1cccc(-c2ccc(OCCCN3CCN(c4ccncc4)CC3)cc2)c1,GI50,[1],1.23 µM
same,TGI,[1],2.55 µM
same,GI50,[2],1.87 µM
same,TGI,[2],7.27 µM
same,GI50,[3],1.76 µM
same,TGI,[3],3.26 µM
same,GI50,[4],1.76 µM
same,TGI,[4],3.22 µM
same,GI50,[5],1.49 µM
same,TGI,[5],2.85 µM
same,GI50,[6],1.7 µM
same,TGI,[6],3.16 µM
same,GI50,[7],1.94 µM
same,TGI,[7],3.98 µM
same,GI50,[8],1.24 µM
same,TGI,[8],2.66 µM
same,GI50,[9],3.51 µM
same,TGI,[9],15.1 µM
same,GI50,[10],1.71 µM
same,TGI,[10],3.22 µM
same,GI50,[11],1.49 µM
same,TGI,[11],3.88 µM
same,GI50,[12],1.96 µM
same,TGI,[12],5.11 µM
same,GI50,[13],1.63 µM
same,TGI,[13],9.43 µM
same,GI50,[14],1.65 µM
same,TGI,[14],3.04 µM
same,GI50,[15],1.74 µM
same,TGI,[15],3.31 µM
same,GI50,[16],1.7 µM
same,TGI,[16],4.48 µM
same,GI50,[17],1.7 µM
same,TGI,[17],3.27 µM
same,GI50,[18],2.73 µM
same,TGI,[18],8.21 µM
same,GI50,[19],1.55 µM
same,TGI,[19],3.18 µM
same,GI50,[20],1.5 µM
same,TGI,[20],3.01 µM
same,GI50,[21],1.5 µM
same,TGI,[21],3.04 µM
same,GI50,[22],1.62 µM
same,TGI,[22],3.03 µM
same,GI50,[23],1.64 µM
same,TGI,[23],3.08 µM
same,GI50,[24],2.04 µM
same,TGI,[24],4.71 µM
same,GI50,[25],1.71 µM
same,TGI,[25],3.26 µM
same,GI50,[26],1.82 µM
same,TGI,[26],3.25 µM
same,GI50,[27],1.57 µM
same,TGI,[27],2.99 µM
same,GI50,[28],2.5 µM
same,TGI,[28],5.92 µM
same,GI50,[29],5.64 µM
same,TGI,[29],19.3 µM
same,GI50,[30],1.67 µM
same,TGI,[30],3.33 µM
same,GI50,[31],1.28 µM
same,TGI,[31],4.28 µM
same,GI50,[32],1.75 µM
same,TGI,[32],3.24 µM
same,GI50,[33],1.89 µM
same,TGI,[33],4.91 µM
same,GI50,[34],1.67 µM
same,TGI,[34],3.12 µM
same,GI50,[35],2.81 µM
same,TGI,[35],10.4 µM
same,GI50,[36],2.34 µM
same,TGI,[36],5.81 µM
same,GI50,[37],1.85 µM
same,TGI,[37],4.65 µM
same,GI50,[38],2.08 µM
same,TGI,[38],4.69 µM
same,GI50,[39],1.93 µM
same,TGI,[39],4.35 µM
same,GI50,[40],1.94 µM
same,TGI,[40],6.15 µM
same,GI50,[41],1.65 µM
same,TGI,[41],3.6 µM
same,GI50,[42],0.886 µM
same,TGI,[42],> 100 µM
same,GI50,[43],1.82 µM
same,TGI,[43],3.52 µM
same,GI50,[44],2.09 µM
same,TGI,[44],4.79 µM
same,GI50,[45],1.73 µM
same,TGI,[45],3.17 µM
same,GI50,[46],1.7 µM
same,TGI,[46],3.07 µM
same,GI50,[47],1.66 µM
same,TGI,[47],3.26 µM
same,GI50,[48],1.7 µM
same,TGI,[48],3.36 µM
same,GI50,[49],1.57 µM
same,TGI,[49],2.98 µM
same,GI50,[50],2.08 µM
same,TGI,[50],4.14 µM
same,GI50,[51],2.07 µM
same,TGI,[51],5.09 µM
same,GI50,[52],1.87 µM
same,TGI,[52],3.79 µM
same,GI50,[53],1.77 µM
same,TGI,[53],3.28 µM
same,GI50,[54],1.79 µM
same,TGI,[54],3.56 µM
same,GI50,[55],1.75 µM
same,TGI,[55],3.16 µM
same,GI50,[56],2.6 µM
same,TGI,[56],8.32 µM
